Laboratory results as given in US20240082200A1, “4-THIOCARBAMOYLPHENYL 2-(4-OXOPHENYL)-PHENYL PROPANOATE FOR THE TREATMENT OF PAIN ASSOCIATED WITH UROLOGIC CHRONIC PELVIC PAIN SYNDROME” (Antibe Therapeutics Inc., priority 2022, published 2024).
“Also recorded” adds a separate entry of the source.

How the values were obtained:
[1] = tested on: cyclophosphamide (CYP)-induced interstitial cystitis; assay: Mechanical allodynia (electronic von Frey) in CYP-induced cystitis mice; assay type: in vivo, male C57BL/6 SPF mice; conditions: for reversal of abdominal mechanical allodynia (withdrawal threshold, AUC 21 to 24 h after CYP): 21 h after CYP
Procedure: Experiments were conducted with male C57BL/6 SPF mice (6-10 weeks of age) obtained from the animal care facilities at the Faculty of Medicine, University of Sao Paulo, Brazil. Mice were randomly separated into different treatment groups (n=5 to 7 per group). Groups of five or fewer mice were kept in Perspex cages under standard controlled conditions (22° C.; 12/12 h light/dark cycle) with free access to food (Nuvilab CR-1, Quimtia S/A, Brazil) and filtered tap water. The study was performed in agreement with the guidelines from the Brazilian Council for Control of Animal Experimentation (CONCEA) guidelines, consistent with the Animal Welfare Act. All the experimental protocols were approved by the local ethics committee (CEUA—ICB; protocol n ° 2055050819). According to the internal laboratory rules, euthanasia was performed if severe distress related to the test agents developed during the experiment.
Cystitis was induced by a single i.p. injection of cyclophosphamide CYP (300 mg kg^−1; Oliveira et al., 2018), while the control group received an i.p. injection of saline (10 ml kg^−1). […] The drugs were dissolved in 0.5% CMC at a concentration of 10 ml/kg^−1.
The mice were individually placed in a clear Perspex testing chamber (11 cm×9.5 cm×18 cm) on an elevated wire grid platform (0.5 cm2 grid) for an adequate acclimatization (˜1 h). Mechanical sensitivity assessment was performed with the aid of an electronic von Frey apparatus (Insight Inc., Ribeiräo Preto, SP, Brazil) with groups of 5-7 mice each, as described previously (Costa et al., 2020). Force-generating pressure was applied to the lower abdomen in the vicinity of the bladder (pelvic region between the urethra and the anus) with a pressure transducer connected to a digital force detector (Insight Ltd, Ribeiräo Preto/SP, Brazil). Retraction of the abdomen (mechanical allodynia) from the probe was considered as a positive response to the stimuli and were recorded in grams (g). […] All mechanical sensitivity testing was performed in a blinded manner. Response threshold data were analyzed via analysis of variance (ANOVA) followed by Tukey's post hoc test. All mice were euthanized with an overdose of isoflurane followed by cervical dislocation.

bladder strips = assay: Bladder functional assay in vitro (bladder strips from treated CYP-cystitis mice); assay type: in vivo, male C57BL/6 SPF mice; conditions: for reduced contractile response of CYP bladder strips to KCl (80 mM): improvement: bladders taken 24 h after CYP
Procedure: The drugs were dissolved in 0.5% CMC at a concentration of 10 ml/kg^−1.
After 24 h, mice with CYP-induced cystitis were euthanized and the bladders were immediately transferred into a petri-dish. […] The bladders were divided into two longitudinal strips and mounted in an isolated organ bath system (Panlab Harvard, Massachussetts, USA) containing Krebs Henseleit solution at 37° C. (pH 7.4, O2/CO2 […] v/v) under a resting tension of 5 mN. Tissues were allowed to stabilize for 1 h, and during this period the bathing solution was replaced every 15 min. Isometric force was recorded using a PowerLab 8/30 Data Acquisition System (Software Chart, version 6.0, ADInstrument, Milford, MA, USA).

[2] = tested on: surgical incision pain model; conditions: mice; cited from earlier work
gastric mucosa = assay: Assessment of gastric lesions in IC/BPS mice; assay type: in vivo, male C57BL/6 SPF mice; conditions: 3 h after oral dose, compound of Formula I 77 mg kg^-1 / ketoprofen 50 mg kg^-1 (equimolar)
Procedure: Briefly, mice from distinct experimental groups were euthanized by cervical dislocation under isoflurane anesthesia, and the stomach was excised, opened along the smaller curvature, rinsed gently with saline and then photographed with a digital camera (Samsung Galaxy S20, Campinas/SP, Brazil). The hemorrhagic gastric lesion area was measured blindly (mm^2) using computerized planimetry software (ImageJ, Maryland, USA).

[3] = in vivo; cited from earlier work
periodontitis = conditions: compared with ketoprofen (parent drug); cited from earlier work

CC(C(=O)Oc1ccc(C(N)=S)cc1)c1ccc(C(=O)c2ccccc2)cc1 (centres unmarked) [compound of Formula I, 4-thiocarbamoylphenyl 2-(4-oxophenyl)-phenyl propanoate]
reversal of abdominal mechanical allodynia (withdrawal threshold, AUC 21 to 24 h after CYP) ([1]; equimolar dose compound of Formula I 15 mg kg^-1 / ketoprofen 10 mg kg^-1, p.o., vs CYP + CMC 0.5%): significant dose-dependent differences
reversal of abdominal mechanical allodynia (withdrawal threshold, AUC 21 to 24 h after CYP) ([1]; equimolar dose compound of Formula I 46 mg kg^-1 / ketoprofen 30 mg kg^-1, p.o., vs CYP + CMC 0.5%): significant dose-dependent differences
reversal of abdominal mechanical allodynia (withdrawal threshold, AUC 21 to 24 h after CYP) ([1]; equimolar dose compound of Formula I 77 mg kg^-1 / ketoprofen 50 mg kg^-1, p.o., vs CYP + CMC 0.5%): significant dose-dependent differences
analgesic effect as compared to equimolar ketoprofen (mechanical allodynia AUC) ([1]; highest equimolar dose, 77 mg kg^-1 p.o. vs ketoprofen 50 mg kg^-1, P<0.001): enhanced analgesic effects
anti-hyperalgesic effect on decreased abdominal withdrawal threshold (mechanical allodynia, AUC 21 to 24 h after CYP) ([1]; lowest equimolar dose (compound of Formula I 4.6 mg kg^-1 / ketoprofen 3 mg kg^-1), p.o., 21 h after CYP 300 mg kg^-1 i.p., vs CYP + CMC 0.5%): no an anti-hyperalgesic effect
potency compared with ketoprofen (abdominal hyperalgesic state and bladder contractile response, CYP-induced IC/BPS model) ([1]; orally administered as a single dose): greater than that of ketoprofen
reduced contractile response of CYP bladder strips to KCl (80 mM): improvement (bladder strips; equimolar dose compound of Formula I 15 mg kg^-1 / ketoprofen 10 mg kg^-1 p.o., vs CYP control): significantly and dose-dependently increased
reduced contractile response of CYP bladder strips to KCl (80 mM): improvement (bladder strips; equimolar dose compound of Formula I 46 mg kg^-1 / ketoprofen 30 mg kg^-1 p.o., vs CYP control): significantly and dose-dependently increased
reduced maximal (Emax) contractile response elicited by carbachol (CCh) in bladder strips of IC/BPS mice: improvement (bladder strips; high doses (compound of Formula I 77 mg kg^-1 / ketoprofen 50 mg kg^-1 p.o.)): significantly increased
reduced contractile response of CYP bladder strips to KCl (80 mM): improvement (bladder strips; high doses: compound of Formula I 77 mg kg^-1 / ketoprofen 50 mg kg^-1 p.o.): neither compound of Formula I (77 mg kg^−1) nor ketoprofen (50 mg kg^−1) significantly improved
efficacy over ketoprofen in surgical incision pain model [2]: increased efficacy
hemorrhagic gastric lesions (gastric mucosal hemorrhagic injury) (gastric mucosa): did not; also recorded: normal gastric mucosa
GI safety compared to ketoprofen [3]: increased GI safety
potency and effectiveness in periodontitis versus parent drug (periodontitis): more potent and effective
